Measurements: patent US20220127297A1, “Novel Antibacterial 3"-Derivatives Of 4,6-Disubstituted 2,5-Dideoxystreptamine Aminoglycoside Antibiotics” (AGILeBiotics B.V., priority 2018, published 2022)
In brackets after ≈: the same amount, converted by molar mass.

Experiments:
E. coli (APH(3′)IIIa) = assay: MIC 50, broth micro-dilution, E. coli expressing APH(3′)IIIa; format: cell-based, Escherichia coli
Summary of the method: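 Two-fold dilution series of compound (64 μM top, final) in MH2 broth, inoculated with plasmid-transformed E. coli ATCC 25922 at OD 0.1 and incubated 18 h, 37° C. Half-maximal growth by OD600 defined MIC50.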

E. coli (AAC(3)III) = assay: MIC 50, broth micro-dilution, E. coli expressing AAC(3)III; format: cell-based, Escherichia coli
[1] = Escherichia coli, ATCC25922, ATCC25922 harboring plasmid encoding APH(3′)IIIa
[2] = Escherichia coli, ATCC25922, ATCC25922 harboring plasmid encoding AAC(3)III
[3] = ATCC25922 harboring plasmid encoding APH(3′)IIIa
[4] = ATCC25922 harboring plasmid encoding AAC(3)III

Structure (SMILES)	MIC50 (E. coli (APH(3′)IIIa); [1]) [µM]	MIC50 (E. coli (AAC(3)III); [2]) [µM]	MIC50 (E. coli (APH(3′)IIIa); [3]) [µM]	MIC50 (E. coli (AAC(3)III); [4]) [µM]
N=C(NCc1cnc[nH]1)NC1[C@@H](O)C(OC2[C@@H](F)[C@H](O[C@H]3OC(CN)[C@@H](O)CC3N)C(N)C[C@H]2NC(=O)[C@@H](O)CCN)O[C@H](CO)[C@H]1O (some centres unmarked) [ABX5050, Tobra-AHB-F-Gua imidazol-5-yl methyl]	1 to 2 (≈ 0.693 to 1.39 µg/mL)	1 (≈ 0.693 µg/mL)		
N=C(N)NC1[C@@H](O)C(OC2[C@@H](F)[C@H](O[C@H]3OC(CN)[C@@H](O)[C@H](O)C3N)C(N)C[C@H]2NC(=O)[C@@H](O)CCN)O[C@H](CO)[C@H]1O (some centres unmarked) [ABX4006, KanaB-AHB-F-Gua]		0.25 (≈ 0.157 µg/mL)	4 to 8	
N=C(NCCCO)NC1[C@@H](O)C(OC2[C@@H](F)[C@H](O[C@H]3OC(CN)[C@@H](O)CC3N)C(N)C[C@H]2NC(=O)[C@@H](O)CCN)O[C@H](CO)[C@H]1O (some centres unmarked) [ABX5041, Tobra-AHB-F-Gua 3-hydroxy-propyl]	0.5 (≈ 0.335 µg/mL)	0.5 (≈ 0.335 µg/mL)		
NCCC(O)C(=O)NC1CC(N)C(OC2OC(CN)C(O)C(O)C2O)C(F)C1OC1OC(CO)C(O)C(N)C1O (stereo not drawn) [ABX3005, 3′Epi-KanaA-AHB-F]			4 to 8	4 (≈ 2.35 µg/mL)
N=C(NCCCN)NC1[C@@H](O)C(OC2[C@@H](F)[C@H](O[C@H]3OC(CN)[C@@H](O)CC3N)C(N)C[C@H]2NC(=O)[C@@H](O)CCN)O[C@H](CO)[C@H]1O (some centres unmarked) [ABX5030, Tobra-AHB-F-Gua-3-amino-propyl]	0.25 (≈ 0.167 µg/mL)	0.25 (≈ 0.167 µg/mL)		
N=C(NCCO)NC1[C@@H](O)C(OC2[C@@H](F)[C@H](O[C@H]3OC(CN)[C@@H](O)CC3N)C(N)C[C@H]2NC(=O)[C@@H](O)CCN)O[C@H](CO)[C@H]1O (some centres unmarked) [ABX5029, Tobra-AHB-F-Gua 2-hydroxy-ethyl]	0.5 (≈ 0.328 µg/mL)	0.5 (≈ 0.328 µg/mL)		
N=C(N)NC1[C@@H](O)C(OC2[C@@H](F)[C@H](O[C@H]3OC(CN)[C@@H](O)[C@H](O)C3N)C(N)C[C@H]2NC(=O)[C@@H](O)CCN)O[C@H](CO)[C@H]1O (stereo partly drawn) [ABX4004, 3′epi-KanaB-AHB-F-Gua]			1 to 2	0.5 (≈ 0.314 µg/mL)
N=C(N)N[C@@H]1[C@@H](O)[C@@H](O[C@@H]2[C@@H](O)[C@H](O[C@H]3O[C@H](CN)[C@@H](O)[C@@H](O)[C@H]3N)[C@@H](N)C[C@H]2NC(=O)[C@@H](O)CCN)O[C@H](CO)[C@H]1O [ABX4005, 3′Epi-KanaB-AHB-Gua]			8 to 16	4 (≈ 2.51 µg/mL)
N=C(NC[C@@H]1CCCN1)NC1[C@@H](O)C(OC2[C@@H](F)[C@H](O[C@H]3OC(CN)[C@@H](O)CC3N)C(N)C[C@H]2NC(=O)[C@@H](O)CCN)O[C@H](CO)[C@H]1O (stereo partly drawn) [ABX5026, Tobra-AHB-F-Gua (S) pyrrolidine-2-yl-methyl]	0.25 (≈ 0.174 µg/mL)	0.25 (≈ 0.174 µg/mL)		
NCCC(O)C(=O)NC1CC(N)C(OC2OC(CN)C(O)C(O)C2N)C(O)C1OC1OC(CO)C(O)C(N)C1O (centres unmarked) [ABX4001, KanaB-AHB]			8 to 16	1 to 2
NCC[C@H](O)C(=O)N[C@@H]1CC(N)[C@@H](O[C@H]2OC(CN)[C@@H](O)[C@@H](O)C2N)[C@H](O)C1OC1O[C@H](CO)[C@@H](O)C(N)[C@H]1O (stereo partly drawn) [ABX4002, 3′Epi-KanaB-AHB]			8 (≈ 4.68 µg/mL)	4 (≈ 2.34 µg/mL)
NCCC(O)C(=O)NC1CC(N)C(OC2OC(CN)C(O)C(O)C2N)C(F)C1OC1OC(CO)C(O)C(N)C1O (centres unmarked) [ABX4007, KanaB-AHB-F]			16 (≈ 9.39 µg/mL)	1 (≈ 0.587 µg/mL)
N=C(NCC1CCOC1)NC1[C@@H](O)C(OC2[C@@H](F)[C@H](O[C@H]3OC(CN)[C@@H](O)CC3N)C(N)C[C@H]2NC(=O)[C@@H](O)CCN)O[C@H](CO)[C@H]1O (some centres unmarked) [ABX5051, Tobra-AHB-F-Gua tetrahydrofuran-3-yl methyl]	0.5 (≈ 0.348 µg/mL)	0.5 to 1 (≈ 0.348 to 0.697 µg/mL)		
